Measured values published in PubChem BioAssay AID328 (DTP/NCI, 2004).
Several values for one entry are separate records, joined by “and”; a condition that tells them apart may be missing. Identical values can stand only once. Inconclusive results and toxic doses are left out.

Test system: BDF1 mice, P388 leukemia ip, median survival T/C
Assay: NCI In Vivo Anticancer Drug Screen. Data for tumor model P388 Leukemia (intraperitoneal) in B6D2F1 (BDF1) mice
Conditions: endpoint: median survival time, higher = longer survival
Outline: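 T/C = treated-group survival ÷ vehicle-control survival; tumour transplanted into mice before dosing.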

[1] = dose: 3.0 mg/kg/injection, schedule: Q04DX003 (ip), vehicle: saline with Tween-80
[2] = dose: 6.0 mg/kg/injection, schedule: Q04DX003 (ip), vehicle: saline with Tween-80
[3] = dose: 25.0 mg/kg/injection, schedule: Q01DX009 (ip), vehicle: saline with Tween-80
[4] = dose: 50.0 mg/kg/injection, schedule: Q01DX009 (ip), vehicle: saline with Tween-80
[5] = dose: 100.0 mg/kg/injection, schedule: Q01DX009 (ip), vehicle: saline with Tween-80
[6] = dose: 200.0 mg/kg/injection, schedule: Q01DX009 (ip), vehicle: saline with Tween-80
[7] = dose: 100.0 mg/kg/injection, schedule: Q01DX009 (ip), vehicle: Klucel (hydroxypropylcellulose) (HPC)
[8] = dose: 100.0 mg/kg/injection, schedule: Q04DX003 (ip), vehicle: Klucel (hydroxypropylcellulose) (HPC)
[9] = dose: 200.0 mg/kg/injection, schedule: Q01DX009 (ip), vehicle: Klucel (hydroxypropylcellulose) (HPC)
[10] = dose: 200.0 mg/kg/injection, schedule: Q04DX003 (ip), vehicle: Klucel (hydroxypropylcellulose) (HPC)
[11] = dose: 400.0 mg/kg/injection, schedule: Q01DX009 (ip), vehicle: Klucel (hydroxypropylcellulose) (HPC)
[12] = dose: 400.0 mg/kg/injection, schedule: Q04DX003 (ip), vehicle: Klucel (hydroxypropylcellulose) (HPC)
[13] = dose: 6.25 mg/kg/injection, schedule: Q01DX009 (ip), vehicle: saline with Tween-80
[14] = dose: 12.5 mg/kg/injection, schedule: Q01DX009 (ip), vehicle: saline with Tween-80

## CS(=O)(=O)Nc1ccc(Nc2c3ccccc3nc3cc([N+](=O)[O-])ccc23)cc1
dose: 0.09 mg/kg/injection, schedule: Q04DX003 (ip), vehicle: saline with Tween-80
  T/C: 91 % of control
dose: 0.18 mg/kg/injection, schedule: Q04DX003 (ip), vehicle: saline with Tween-80
  T/C: 100 % of control
dose: 0.75 mg/kg/injection, schedule: Q01DX009 (ip), vehicle: saline with Tween-80
  T/C: 169 % of control
dose: 1.5 mg/kg/injection, schedule: Q01DX009 (ip), vehicle: saline with Tween-80
  T/C: 185 % of control
dose: 1.5 mg/kg/injection, schedule: Q04DX003 (ip), vehicle: saline with Tween-80
  T/C: 150 % of control
dose: 3.0 mg/kg/injection, schedule: Q01DX009 (ip), vehicle: saline with Tween-80
  T/C: 235 % of control
[1]
  T/C: 162 % of control
[2]
  T/C: 252 % of control and 183 % of control and 200 % of control
dose: 9.0 mg/kg/injection, schedule: Q04DX003 (ip), vehicle: saline with Tween-80
  T/C: 285 % of control and 204 % of control
dose: 14.0 mg/kg/injection, schedule: Q04DX003 (ip), vehicle: saline with Tween-80
  T/C: 250 % of control and 285 % of control
dose: 21.0 mg/kg/injection, schedule: Q04DX003 (ip), vehicle: saline with Tween-80
  T/C: 250 % of control and 272 % of control and 157 % of control

## CC(C)CC(NC(=O)CN)C(=O)O (stereo not given)
[3]
  T/C: 98 % of control
[4]
  T/C: 99 % of control
[5]
  T/C: 102 % of control
[6]
  T/C: 111 % of control
dose: 200.0 mg/kg/injection, schedule: Q01DX009 (ip), vehicle: saline
  T/C: 118 % of control
dose: 400.0 mg/kg/injection, schedule: Q01DX009 (ip), vehicle: saline
  T/C: 96 % of control

## CCCCCCCCCCCC(=O)CCCCC
dose: 100.0 mg/kg/injection, schedule: Q04DX003 (ip), vehicle: other
  T/C: 100 % of control
dose: 200.0 mg/kg/injection, schedule: Q04DX003 (ip), vehicle: other
  T/C: 100 % of control
dose: 400.0 mg/kg/injection, schedule: Q04DX003 (ip), vehicle: other
  T/C: 104 % of control

## CC(NC1=NCCO1)c1cccc2ccccc12 (stereo not given)
dose: 100.0 mg/kg/injection, schedule: Q01DX001 (ip), vehicle: saline with Tween-80
  T/C: 91 % of control
dose: 200.0 mg/kg/injection, schedule: Q01DX001 (ip), vehicle: saline with Tween-80
  T/C: 91 % of control
dose: 400.0 mg/kg/injection, schedule: Q01DX001 (ip), vehicle: saline with Tween-80
  T/C: 91 % of control

## C(=N\Nc1nc2ccccc2o1)/c1ccncc1
[7]
  T/C: 100 % of control and 104 % of control
[8]
  T/C: 100 % of control
[9]
  T/C: 109 % of control
[10]
  T/C: 95 % of control
[11]
  T/C: 105 % of control and 109 % of control
[12]
  T/C: 100 % of control

## O=C1OC2CCC3C1C3C2Br (stereo not given)
dose: 2.32 mg/kg/injection, schedule: Q04DX003 (ip), vehicle: Klucel (hydroxypropylcellulose) (HPC)
  T/C: 95 % of control
dose: 4.65 mg/kg/injection, schedule: Q04DX003 (ip), vehicle: Klucel (hydroxypropylcellulose) (HPC)
  T/C: 95 % of control
dose: 9.3 mg/kg/injection, schedule: Q04DX003 (ip), vehicle: Klucel (hydroxypropylcellulose) (HPC)
  T/C: 95 % of control
dose: 13.0 mg/kg/injection, schedule: Q04DX003 (ip), vehicle: Klucel (hydroxypropylcellulose) (HPC)
  T/C: 115 % of control
dose: 21.0 mg/kg/injection, schedule: Q04DX003 (ip), vehicle: Klucel (hydroxypropylcellulose) (HPC)
  T/C: 115 % of control
dose: 30.0 mg/kg/injection, schedule: Q04DX003 (ip), vehicle: Klucel (hydroxypropylcellulose) (HPC)
  T/C: 120 % of control
dose: 45.0 mg/kg/injection, schedule: Q04DX003 (ip), vehicle: Klucel (hydroxypropylcellulose) (HPC)
  T/C: 109 % of control
dose: 70.0 mg/kg/injection, schedule: Q04DX003 (ip), vehicle: Klucel (hydroxypropylcellulose) (HPC)
  T/C: 95 % of control

## CCOC(=O)C(C#N)(CC)C1=CCCCC1 (stereo not given)
[7]
  T/C: 108 % of control
[8]
  T/C: 109 % of control
[9]
  T/C: 100 % of control
[10]
  T/C: 100 % of control
[11]
  T/C: 104 % of control
[12]
  T/C: 122 % of control

## CCOCc1c(COc2ccc(OC)cc2)n(CC#CCOc2ccc(OC)cc2)c2ccc(Br)cc12
[4]
  T/C: 101 % of control
[5]
  T/C: 93 % of control
[6]
  T/C: 98 % of control

## CCOC(=O)Nc1cc(NC(C)CCCN(CC)CC)c2ncc(-c3ccc(Cl)c(Cl)c3)nc2n1 (stereo not given) (tested in a mixture with another compound)
dose: 6.25 mg/kg/injection, schedule: Q01DX009 (ip), vehicle: saline
  T/C: 109 % of control
dose: 6.25 mg/kg/injection, schedule: Q04DX003 (ip), vehicle: saline
  T/C: 95 % of control
dose: 12.5 mg/kg/injection, schedule: Q01DX009 (ip), vehicle: saline
  T/C: 100 % of control
dose: 12.5 mg/kg/injection, schedule: Q04DX003 (ip), vehicle: saline
  T/C: 95 % of control
dose: 25.0 mg/kg/injection, schedule: Q01DX009 (ip), vehicle: saline
  T/C: 104 % of control
dose: 25.0 mg/kg/injection, schedule: Q04DX003 (ip), vehicle: saline
  T/C: 104 % of control

## C/C=C(\C)C(=O)OC1CC[N+]2([O-])CCC(COC(=O)/C(=C/C)CO)C12 (stereo not given)
dose: 30.0 mg/kg/injection, schedule: Q01DX010 (ip), vehicle: saline
  T/C: 111 % of control
dose: 60.0 mg/kg/injection, schedule: Q01DX010 (ip), vehicle: saline
  T/C: 111 % of control
dose: 100.0 mg/kg/injection, schedule: Q01DX010 (ip), vehicle: saline
  T/C: 116 % of control

## CCC(C)(O)C#CC#CC(C)(O)CC (stereo not given)
dose: 12.5 mg/kg/injection, schedule: Q01DX009 (ip), vehicle: Klucel (hydroxypropylcellulose) (HPC)
  T/C: 100 % of control
dose: 12.5 mg/kg/injection, schedule: Q04DX003 (ip), vehicle: Klucel (hydroxypropylcellulose) (HPC)
  T/C: 100 % of control
dose: 25.0 mg/kg/injection, schedule: Q01DX009 (ip), vehicle: Klucel (hydroxypropylcellulose) (HPC)
  T/C: 100 % of control
dose: 25.0 mg/kg/injection, schedule: Q04DX003 (ip), vehicle: Klucel (hydroxypropylcellulose) (HPC)
  T/C: 90 % of control
dose: 50.0 mg/kg/injection, schedule: Q01DX009 (ip), vehicle: Klucel (hydroxypropylcellulose) (HPC)
  T/C: 113 % of control
dose: 50.0 mg/kg/injection, schedule: Q04DX003 (ip), vehicle: Klucel (hydroxypropylcellulose) (HPC)
  T/C: 95 % of control

## CC(C#N)(Nc1ccccc1)c1ccc(Br)cc1 (stereo not given)
dose: 100.0 mg/kg/injection, schedule: Q04DX003 (ip), vehicle: saline sonified
  T/C: 104 % of control
dose: 200.0 mg/kg/injection, schedule: Q04DX003 (ip), vehicle: saline sonified
  T/C: 95 % of control
dose: 400.0 mg/kg/injection, schedule: Q04DX003 (ip), vehicle: saline sonified
  T/C: 95 % of control

## CC1(C)CC(=O)C(C)(C)C(=O)C1
[1]
  T/C: 95 % of control
[2]
  T/C: 108 % of control
[13]
  T/C: 100 % of control
dose: 12.0 mg/kg/injection, schedule: Q04DX003 (ip), vehicle: saline with Tween-80
  T/C: 100 % of control
[14]
  T/C: 104 % of control
dose: 25.0 mg/kg/injection, schedule: Q04DX003 (ip), vehicle: saline with Tween-80
  T/C: 95 % of control

## COc1ccc2c3c(ccc2c1)C1=C(C(=O)O)CC(=O)C1(C)CC3 (stereo not given)
dose: 100.0 mg/kg/injection, schedule: Q04DX003 (sc), vehicle: steriod suspending solution
  T/C: 108 % of control
dose: 200.0 mg/kg/injection, schedule: Q04DX003 (sc), vehicle: steriod suspending solution
  T/C: 100 % of control
dose: 400.0 mg/kg/injection, schedule: Q04DX003 (sc), vehicle: steriod suspending solution
  T/C: 95 % of control

## COc1ccc([C@@H]2c3cc4c(cc3C[C@H]3COC(=O)[C@@H]32)OCO4)cc1OC
[13]
  T/C: 104 % of control
[14]
  T/C: 116 % of control
[3]
  T/C: 121 % of control

## CC(=N\O)/C(=N\O)C(=O)c1ccccc1
dose: 100.0 mg/kg/injection, schedule: Q01DX009 (ip), vehicle: other
  T/C: 91 % of control
dose: 100.0 mg/kg/injection, schedule: Q04DX003 (ip), vehicle: saline with Tween-80
  T/C: 95 % of control
dose: 200.0 mg/kg/injection, schedule: Q04DX003 (ip), vehicle: saline with Tween-80
  T/C: 95 % of control
dose: 400.0 mg/kg/injection, schedule: Q04DX003 (ip), vehicle: saline with Tween-80
  T/C: 90 % of control
